Data taken from patent publication US8877748B2, “Heterocyclic fused anthraquinone derivatives, manufacturing method and pharmaceutical composition using thereof” (National Defense Medical Center, priority 2012, dated 2014).

Assays:
[1] = tested on: PC-3 prostate cancer cell line; assay: SRB assay cell viability, PC-3 prostate cancer cell line; format: cell-based, human; settings: Homo sapiens, PC-3 prostate cancer cell line, Table II prints no unit, μM printed, read-out: SRB assay: 50% inhibition of cancer cell proliferation of sample concentration (IC50) of PC-3 prostate cancer cell line
EKVX = assay: NCI one-dose screening, non-small cell lung cancer EKVX; format: cell-based, human; settings: 10 μM
HOP-62 = assay: NCI one-dose screening, non-small cell lung cancer HOP-62; format: cell-based, human; settings: 10 μM
NCI-H226 = assay: NCI one-dose screening, non-small cell lung cancer NCI-H226; format: cell-based, human; settings: 10 μM
NCI-H23 = assay: NCI one-dose screening, non-small cell lung cancer NCI-H23; format: cell-based, human; settings: 10 μM
NCI-H522 = assay: NCI one-dose screening, non-small cell lung cancer NCI-H522; format: cell-based, human; settings: 10 μM
A549/ATCC = assay: NCI one-dose screening, non-small cell lung cancer A549/ATCC; format: cell-based, human; settings: 10 μM
COLO 205 = assay: NCI one-dose screening, colon cancer COLO 205; format: cell-based, human; settings: 10 μM
HCC-2998 = assay: NCI one-dose screening, colon cancer HCC-2998; format: cell-based, human; settings: 10 μM
HCT-116 = assay: NCI one-dose screening, colon cancer HCT-116; format: cell-based, human; settings: 10 μM
HCT-15 = assay: NCI one-dose screening, colon cancer HCT-15; format: cell-based, human; settings: 10 μM
HT29 = assay: NCI one-dose screening, colon cancer HT29; format: cell-based, human; settings: 10 μM
SF-539 = assay: NCI one-dose screening, CNS cancer SF-539; format: cell-based, human; settings: 10 μM
SNB-19 = assay: NCI one-dose screening, CNS cancer SNB-19; format: cell-based, human; settings: 10 μM
SNB-75 = assay: NCI one-dose screening, CNS cancer SNB-75; format: cell-based, human; settings: 10 μM
U251 = assay: NCI one-dose screening, CNS cancer U251; format: cell-based, human; settings: 10 μM
LOX IMVI = assay: NCI one-dose screening, melanoma LOX IMVI; format: cell-based, human; settings: 10 μM
MALME-3M = assay: NCI one-dose screening, melanoma MALME-3M; format: cell-based, human; settings: 10 μM
M14 = assay: NCI one-dose screening, melanoma M14; format: cell-based, human; settings: 10 μM
UACC-62 = assay: NCI one-dose screening, melanoma UACC-62; format: cell-based, human; settings: 10 μM
UACC-257 = assay: NCI one-dose screening, melanoma UACC-257; format: cell-based, human; settings: 10 μM
SK-MEL-2 = assay: NCI one-dose screening, melanoma SK-MEL-2; format: cell-based, human; settings: 10 μM
SK-MEL-28 = assay: NCI one-dose screening, melanoma SK-MEL-28; format: cell-based, human; settings: 10 μM
SK-MEL-5 = assay: NCI one-dose screening, melanoma SK-MEL-5; format: cell-based, human; settings: 10 μM
IGROV1 = assay: NCI one-dose screening, ovarian cancer IGROV1; format: cell-based, human; settings: 10 μM
OVCAR-5 = assay: NCI one-dose screening, ovarian cancer OVCAR-5; format: cell-based, human; settings: 10 μM
OVCAR-8 = assay: NCI one-dose screening, ovarian cancer OVCAR-8; format: cell-based, human; settings: 10 μM
SK-OV-3 = assay: NCI one-dose screening, ovarian cancer SK-OV-3; format: cell-based, human; settings: 10 μM
786-O = assay: NCI one-dose screening, renal cancer 786-O; format: cell-based, human; settings: 10 μM
CAKI-1 = assay: NCI one-dose screening, renal cancer CAKI-1; format: cell-based, human; settings: 10 μM
ACHN = assay: NCI one-dose screening, renal cancer ACHN; format: cell-based, human; settings: 10 μM
SN12C = assay: NCI one-dose screening, renal cancer SN12C; format: cell-based, human; settings: 10 μM
TK-10 = assay: NCI one-dose screening, renal cancer TK-10; format: cell-based, human; settings: 10 μM
UO-31 = assay: NCI one-dose screening, renal cancer UO-31; format: cell-based, human; settings: 10 μM
RXF, 393 = assay: NCI one-dose screening, renal cancer RXF, 393; format: cell-based, human; settings: 10 μM
MCF7 = assay: NCI one-dose screening, breast cancer MCF7; format: cell-based, human; settings: 10 μM
MDA-MB-231/ATCC = assay: NCI one-dose screening, breast cancer MDA-MB-231/ATCC; format: cell-based, human; settings: 10 μM
MDA-MB-468 = assay: NCI one-dose screening, breast cancer MDA-MB-468; format: cell-based, human; settings: 10 μM
NCl/ADR-RES = assay: NCI one-dose screening, breast cancer NCl/ADR-RES; format: cell-based, human; settings: 10 μM; listed under Ovarian cancer
BT-549 = assay: NCI one-dose screening, breast cancer BT-549; format: cell-based, human; settings: 10 μM
T-47D = assay: NCI one-dose screening, breast cancer T-47D; format: cell-based, human; settings: 10 μM
MDA, -MB-435 = assay: NCI one-dose screening, breast cancer MDA, -MB-435; format: cell-based, human; settings: 10 μM; listed under Melanoma
human tumor cell lines = assay: NCI one-dose screening, Mean / Delta / Range of growth percent over all tested cell lines; format: cell-based; settings: 10 μM

IC50 [1]: 5.64 µM
Compound: O=C1c2ccccc2C(=O)c2c1cc(Sc1cccc(Cl)c1)c1nsnc21 [C37, 4-(3-chlorophenyl-thio)anthra[2,1-c][1,2,5] thiadiazol-6,11-dione]
Growth Percent EKVX (EKVX): 43.65%
Growth Percent HOP-62 (HOP-62): 42.12%
Growth Percent NCI-H226 (NCI-H226): 78.07%
Growth Percent NCI-H23 (NCI-H23): −26.91%
Growth Percent NCI-H522 (NCI-H522): 7.18%
Growth Percent A549/ATCC (A549/ATCC): 107.48%
Growth Percent COLO 205 (COLO 205): 105.98%
Growth Percent HCC-2998 (HCC-2998): 101.66%
Growth Percent HCT-116 (HCT-116): −67.84%
Growth Percent HCT-15 (HCT-15): 17.97%
Growth Percent HT29 (HT29): 102.17%
Growth Percent SF-539 (SF-539): −52.72%
Growth Percent SNB-19 (SNB-19): 56.88%
Growth Percent SNB-75 (SNB-75): 26.08%
Growth Percent U251 (U251): −69.50%
Growth Percent LOX IMVI (LOX IMVI): −59.25%
Growth Percent MALME-3M (MALME-3M): −86.56%
Growth Percent M14 (M14): −76.44%
Growth Percent UACC-62 (UACC-62): −64.98%
Growth Percent UACC-257 (UACC-257): −84.59%
Growth Percent SK-MEL-2 (SK-MEL-2): −53.17%
Growth Percent SK-MEL-28 (SK-MEL-28): 24.96%
Growth Percent SK-MEL-5 (SK-MEL-5): 19.02%
Growth Percent IGROV1 (IGROV1): −13.50%
Growth Percent OVCAR-5 (OVCAR-5): 108.55%
Growth Percent OVCAR-8 (OVCAR-8): −22.92%
Growth Percent SK-OV-3 (SK-OV-3): 95.44%
Growth Percent 786-0 (786-O): −2.06%
Growth Percent CAKI-1 (CAKI-1): −3.69%
Growth Percent ACHN (ACHN): −92.53%
Growth Percent SN12C (SN12C): −66.17%
Growth Percent TK-10 (TK-10): 53.81%
Growth Percent UO-31 (UO-31): −74.79%
Growth Percent RXF 393 (RXF, 393): −27.84%
Growth Percent MCF7 (MCF7): −69.36%
Growth Percent MDA-MB-231/ATCC (MDA-MB-231/ATCC): −29.08%
Growth Percent MDA-MB-468 (MDA-MB-468): −79.19%
Growth Percent NCI/ADR-RES (NCl/ADR-RES): −15.13%
Growth Percent BT-549 (BT-549): 36.21%
Growth Percent T-47D (T-47D): −42.26%
Growth Percent MDA-MB-435 (MDA, -MB-435): −82.33%
Growth Percent Delta (human tumor cell lines; delta over all cell lines): 86.78%
Growth Percent Mean (human tumor cell lines; mean over all cell lines): −5.75%
Growth Percent Range (human tumor cell lines; range over all cell lines): 201.08%
